Data on six molecules can be found in patent publication US8410302B2, “Methoxyimino compounds and fungicide composition comprising same” (Kyung Nong Corporation, priority 2007, dated 2013).

Where two headings read alike, the source gives them in different places.

The test system of assay [1] is Pyricularia oryzae Carvara KA301. Description: whole plant or invertebrate. Format: in vivo. The settings on record: for pest or weed control at 2 ppm / pest or weed control at 10 ppm / pest or weed control at 50 ppm / pest or weed control at 100 ppm: Pyricularia oryzae, read-out: RCB control value (C.V.); for RCB control value (C.V.): rice blast.
In the next assay the test system is Botrytis cinerae. As to the kind of experiment: Fungicidal activity against cucumber gray mold rot (CGM) disease, control value. Format: in vivo. The settings on record: 100 ppm; for pest or weed control at 100 ppm: Botrytis, read-out: CGM control value (C.V.).
The test system of a further assay is Phytophthora infestans. As to the kind of experiment: whole plant or invertebrate. Format: in vivo. The settings on record: for pest or weed control at 2 ppm / pest or weed control at 10 ppm / pest or weed control at 50 ppm / pest or weed control at 100 ppm: Phytophthora infestans, in Solanum lycopersicum, read-out: TLB control value (C.V.); for TLB control value (C.V.): tomato late blight.

The next assay has as its system Puccinia recondita. As to the kind of experiment: Fungicidal activity against wheat leaf rust (WLR) disease, control value. Format: in vivo. The settings on record: for pest or weed control at 2 ppm / pest or weed control at 10 ppm / pest or weed control at 50 ppm / pest or weed control at 100 ppm: read-out: WLR control value (C.V.).
The next assay deals with Erysiphae graminis. Description: Fungicidal activity against barley powdery mildew (BPM) disease, control value. Type of assay: in vivo. The settings on record: for pest or weed control at 2 ppm / pest or weed control at 10 ppm / pest or weed control at 50 ppm / pest or weed control at 100 ppm: 168 h, read-out: BPM control value (C.V.).
Another assay relates to Rhizoctonia solani AG-1. Description: Fungicidal activity against rice sheath blight (RSB) disease, control value. The settings on record: for pest or weed control at 2 ppm / pest or weed control at 10 ppm / pest or weed control at 50 ppm / pest or weed control at 100 ppm: Rhizoctonia solani, AG1, in Oryza sativa, read-out: RSB control value (C.V.); for RSB control value (C.V.): rice sheath blight.

Setting [2] is: Hordeum vulgare, 2 ppm, barley powdery mildew.
The mark [3] stands for this setting: Hordeum vulgare, 10 ppm, barley powdery mildew.
Setting [4] is: Hordeum vulgare, 50 ppm, barley powdery mildew.
Where [5] appears, read: Hordeum vulgare, 100 ppm, barley powdery mildew.

For the molecule `CO/N=C(/C(=O)OC)c1ccccc1COc1ccc(C=C(Br)Br)cc1` [Example 7, methyl-(E)-2-(2-((4-(2,2-dibromovinyl)phenoxy)methyl)phenyl)-2-methoxyiminoacetate], the pest or weed control at 2 ppm in assay [1] was 100%; in the assay with Phytophthora infestans it was 100%; in the assay with Puccinia recondita (2 ppm, wheat leaf rust), 100%; in the assay with Erysiphae graminis (setting [2]) it was 100%; with Rhizoctonia solani AG-1 it was 98%. In addition, the pest or weed control at 10 ppm in assay [1] was determined as 100%; in the assay with Phytophthora infestans, 100%; in the assay on Puccinia recondita (10 ppm, wheat leaf rust) it was 100%; in the assay on Erysiphae graminis (setting [3]) it was 100%; in the assay on Rhizoctonia solani AG-1 it was 100%. Further, the pest or weed control at 50 ppm in assay [1] was 100%; in the assay with Phytophthora infestans, 100%; with Puccinia recondita (50 ppm, wheat leaf rust) it was 100%; in the assay on Erysiphae graminis (setting [4]), 100%; in the assay on Rhizoctonia solani AG-1 it was 100%. In addition, the pest or weed control at 100 ppm in assay [1] turned out to be 100%; with Botrytis cinerae (cucumber gray mold rot), 35%; with Phytophthora infestans, 100%; in the assay with Puccinia recondita (100 ppm, wheat leaf rust), 100%; in the assay on Erysiphae graminis (setting [5]) it was 100%; in the assay on Rhizoctonia solani AG-1, 100%.

In the case of `CNC(=O)/C(=N/OC)c1ccccc1CON=C(C)c1ccc(C=C(Cl)Br)cc1` [Example 38, (E)-2-[[[[[2-[4-(2-bromo-2-chlorovinyl)phenyl](1-methyl)methylidene]amino]oxy]methyl]phenyl]-2-methoxyimino-N-methylacetamide], the “RCB control value (C.V.)” value in assay [1] (2 ppm), in assay [1] (10 ppm), in assay [1] (50 ppm) and in assay [1] (100 ppm) was 100% throughout. Also, the “CGM control value (C.V.)” value in the assay with Botrytis cinerae (cucumber gray mold rot) is on record as 65%. Further, the “TLB control value (C.V.)” value stood at 30% in the assay with Phytophthora infestans (2 ppm), 80% in the assay on Phytophthora infestans (10 ppm), 100% in the assay on Phytophthora infestans (50 ppm) and 100% with Phytophthora infestans (100 ppm). Besides, the “WLR control value (C.V.)” value was determined as 100% in the assay with Puccinia recondita (2 ppm, wheat leaf rust); 100% with Puccinia recondita (10 ppm, wheat leaf rust); 100% in the assay on Puccinia recondita (50 ppm, wheat leaf rust); 100% in the assay with Puccinia recondita (100 ppm, wheat leaf rust). The “BPM control value (C.V.)” value in the assay on Erysiphae graminis (2 ppm, barley powdery mildew) was 95%; in the assay with Erysiphae graminis (10 ppm, barley powdery mildew), 98%; with Erysiphae graminis (50 ppm, barley powdery mildew) it was 100%; in the assay with Erysiphae graminis (100 ppm, barley powdery mildew) it was 100%. Moreover, the “RSB control value (C.V.)” value was 80% in the assay with Rhizoctonia solani AG-1 (2 ppm), 95% in the assay with Rhizoctonia solani AG-1 (10 ppm), 98% in the assay on Rhizoctonia solani AG-1 (50 ppm) and 100% in the assay on Rhizoctonia solani AG-1 (100 ppm).

Take `CO/N=C(/C(=O)OC)c1ccccc1COc1ccc(C=C(Br)Br)c(Cl)c1` [Example 81, methyl-(E)-2-(2-((4-(2,2-dibromovinyl)-3-chlorophenoxy)methyl)phenyl)-2-methoxyiminoacetate]: the pest or weed control at 2 ppm in assay [1] amounted to 70%; with Phytophthora infestans, 60%; with Puccinia recondita (Puccinia recondita, 2 ppm), 95%; with Erysiphae graminis (2 ppm), 98%; in the assay on Rhizoctonia solani AG-1 it was 55%. In addition, the pest or weed control at 10 ppm in assay [1] worked out at 90%; in the assay on Phytophthora infestans, 90%; in the assay on Puccinia recondita (Puccinia recondita, 10 ppm), 100%; with Erysiphae graminis (10 ppm) it was 100%; in the assay on Rhizoctonia solani AG-1, 98%. Moreover, the pest or weed control at 50 ppm is 100% in assay [1]; 98% in the assay on Phytophthora infestans; 100% in the assay on Puccinia recondita (Puccinia recondita, 50 ppm); 100% in the assay with Erysiphae graminis (50 ppm); 100% in the assay on Rhizoctonia solani AG-1. For the same molecule, the pest or weed control at 100 ppm worked out at 100% in assay [1]; 60% in the assay on Botrytis cinerae; 100% in the assay on Phytophthora infestans; 100% in the assay on Puccinia recondita (Puccinia recondita, 100 ppm); 100% in the assay on Erysiphae graminis (100 ppm); 100% with Rhizoctonia solani AG-1.

In the case of `CO/N=C(/C(=O)OC)c1ccccc1COc1ccc(C=C(Br)Br)cc1C` [Example 65, methyl-(E)-2-(2-((4-(2,2-dibromovinyl)-2-methylphenoxy)methyl)phenyl)-2-methoxyiminoacetate], the pest or weed control at 2 ppm in assay [1] worked out at 100%; in the assay on Phytophthora infestans, 50%; in the assay on Puccinia recondita (Puccinia recondita, 2 ppm), 100%; with Erysiphae graminis (2 ppm), 60%; in the assay on Rhizoctonia solani AG-1, 97%. The pest or weed control at 10 ppm was found to be 100% in assay [1]; 80% with Phytophthora infestans; 100% in the assay on Puccinia recondita (Puccinia recondita, 10 ppm); 95% with Erysiphae graminis (10 ppm); 100% in the assay on Rhizoctonia solani AG-1. In addition, the pest or weed control at 50 ppm amounted to 100% in assay [1]; 100% in the assay with Phytophthora infestans; 100% in the assay on Puccinia recondita (Puccinia recondita, 50 ppm); 100% in the assay with Erysiphae graminis (50 ppm); 100% in the assay with Rhizoctonia solani AG-1. The pest or weed control at 100 ppm in assay [1] turned out to be 100%; in the assay on Botrytis cinerae it was 35%; in the assay with Phytophthora infestans, 100%; in the assay with Puccinia recondita (Puccinia recondita, 100 ppm) it was 100%; in the assay on Erysiphae graminis (100 ppm), 100%; in the assay on Rhizoctonia solani AG-1 it was 100%.

`CNC(=O)/C(=N/OC)c1ccccc1COc1cccc(C=C(Cl)Cl)c1` [Example 2, (E)-2-(2-((3-(2,2-dichlorovinyl)phenoxy)methyl)phenyl)-2-methoxyimino-N-methylacetamide]: the pest or weed control at 2 ppm in assay [1] is 90%; with Phytophthora infestans it was 98%; with Puccinia recondita (2 ppm, wheat leaf rust), 30%; in the assay on Erysiphae graminis (setting [2]), 100%. The pest or weed control at 10 ppm turned out to be 97% in assay [1]; 100% with Phytophthora infestans; 90% in the assay with Puccinia recondita (10 ppm, wheat leaf rust); 100% in the assay with Erysiphae graminis (setting [3]). Also, the pest or weed control at 50 ppm in assay [1] is 100%; with Phytophthora infestans, 100%; in the assay with Puccinia recondita (50 ppm, wheat leaf rust), 98%; with Erysiphae graminis (setting [4]), 100%. Besides, the pest or weed control at 100 ppm in assay [1] was found to be 100%; with Botrytis cinerae (cucumber gray mold rot), 34%; in the assay with Phytophthora infestans it was 100%; in the assay on Puccinia recondita (100 ppm, wheat leaf rust) it was 100%; with Erysiphae graminis (setting [5]), 100%; in the assay with Rhizoctonia solani AG-1, 32%.

With `CNC(=O)/C(=N/OC)c1ccccc1COc1ccc(C=C(Cl)Br)cc1` [Example 18, (2E)-2-(2-((4-(2-bromo-2-chlorovinyl)phenoxy)methyl)phenyl)-2-methoxyimino-N-methylacetamide], the pest or weed control at 2 ppm in assay [1] is 100%; with Phytophthora infestans it was 30%; in the assay on Puccinia recondita (2 ppm, wheat leaf rust), 100%; with Erysiphae graminis (setting [2]), 95%; in the assay with Rhizoctonia solani AG-1, 90%. Also, the pest or weed control at 10 ppm in assay [1] came out at 100%; with Phytophthora infestans, 80%; in the assay with Puccinia recondita (10 ppm, wheat leaf rust), 100%; in the assay with Erysiphae graminis (setting [3]), 98%; in the assay with Rhizoctonia solani AG-1, 98%. The pest or weed control at 50 ppm in assay [1] was found to be 100%; in the assay with Phytophthora infestans, 100%; with Puccinia recondita (50 ppm, wheat leaf rust), 100%; with Erysiphae graminis (setting [4]), 100%; with Rhizoctonia solani AG-1, 100%. In addition, the pest or weed control at 100 ppm in assay [1] is 100%; in the assay on Botrytis cinerae (cucumber gray mold rot), 45%; with Phytophthora infestans, 100%; in the assay on Puccinia recondita (100 ppm, wheat leaf rust), 100%; in the assay with Erysiphae graminis (setting [5]) it was 100%; in the assay on Rhizoctonia solani AG-1, 100%.
